In PubChem BioAssay (NCI):
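How tested: cells in 96-well plates exposed to compound for 48 hours at five concentrations. GI50: concentration for 50% inhibition of growth. TGI is the concentration that stops growth completely.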

Key:
Test in all cases: inhibition of tumour cell growth, NCI panel, 48 h
HCC-2998 colon = system: HCC-2998 colon
HL-60(TB) leukemia = system: HL-60(TB) leukemia
LOX IMVI melanoma = system: LOX IMVI melanoma
NCI-H226 lung = system: NCI-H226 lung
NCI-H23 lung = system: NCI-H23 lung
NCI-H522 lung = system: NCI-H522 lung
SF-268 CNS = system: SF-268 CNS
SF-539 CNS = system: SF-539 CNS
SK-MEL-28 melanoma = system: SK-MEL-28 melanoma
UACC-257 melanoma = system: UACC-257 melanoma

SMILES	GI50 (HCC-2998 colon) [µM]	TGI (HCC-2998 colon) [µM]	GI50 (HL-60(TB) leukemia) [µM]	TGI (HL-60(TB) leukemia) [µM]	GI50 (LOX IMVI melanoma) [µM]	TGI (LOX IMVI melanoma) [µM]	GI50 (NCI-H226 lung) [µM]	TGI (NCI-H226 lung) [µM]	GI50 (NCI-H23 lung) [µM]	TGI (NCI-H23 lung) [µM]	GI50 (NCI-H522 lung) [µM]	TGI (NCI-H522 lung) [µM]	GI50 (SF-268 CNS) [µM]	TGI (SF-268 CNS) [µM]	GI50 (SF-539 CNS) [µM]	TGI (SF-539 CNS) [µM]	GI50 (SK-MEL-28 melanoma) [µM]	TGI (SK-MEL-28 melanoma) [µM]	GI50 (UACC-257 melanoma) [µM]	TGI (UACC-257 melanoma) [µM]
O=C1c2ccccc2C(=O)c2c1c(NCCNCCO)c1cc[nH]c1c2NCCNCCO	3.18	17.2	2.9	> 21	1.53	> 100	1.78	13.5	7.9	> 27.9	2.32	> 35.8	0.935	5.28	1.25	14.5	3.27	20.5	7.06	29.9
CCN(CCc1ccc(F)cc1)c1ccc(CO)c(Cl)c1	12.6	26.5	9.01	30.3	12.1	25.6	0.199	0.637	12.2	31	10.9	25.4	14.3	28.6	15.7	29.3	16.3	31.2	1.42	4.87
COc1ccc(-n2nc(C)c3c(Nc4ccc(NC(=O)Nc5cc(C(F)(F)F)ccc5F)cc4)ncnc32)cc1	3.19	15.5	2.55	6.67	1.67	3.1	2.34	7.23	2.22	6.71	1.94	4.95	3.24	> 100	1.94	4.87	2.51	6.29	1.99	4.42
N#CC(C(=N/NC(N)=S)/C(=N\NC(N)=S)C(C#N)c1ccccc1)c1ccccc1 (stereo not given)	–	> 10	–	> 10	–	> 10	–	> 10	–	> 10	–	> 10	–	> 10	–	> 10	–	> 10	–	> 10
[O-]c1c(-c2ccccc2)[se]c(-c2ccccc2)[n+]1-c1ccccc1	–	19.3	–	5.51	–	30.5	–	9.11	–	29.7	–	8.42	–	21.6	–	4.35	–	22.7	–	25.3
CCOc1ccc2c(-c3ccnc(Nc4cccc(C(F)(F)F)c4)n3)cnn2n1	22.4	> 25	> 25	> 25	12.3	> 25	> 25	> 25	6.97	> 20	6.33	> 23.1	7.87	> 19.6	4.92	9.63	> 25	> 25	> 25	> 25
CC1=C(CC/C(C)=C/CCC2(C)CCC([C@H](C)C(=O)O)OO2)C(C)(C)CCC1 (stereo not given in full) (tested in a mixture with another compound)	–	> 100	–	> 100	–	> 100	–	> 100	–	> 100	–	> 100	–	> 100	–	> 100	–	> 100	–	> 100
CCCCCn1ncc(-c2c(O)c(O)cc3c(O)c(-c4c(C)cc5c(-c6cnn(CCCCC)n6)c(O)c(O)cc5c4O)c(C)cc23)n1	0.471	4.24	0.124	3.57	0.0908	1.16	0.141	2.8	0.078	3.66	0.0984	1.07	0.147	4.27	0.135	4.06	0.306	6.36	0.792	6.12
CN(C)c1ccc2c(SCC(=O)OCC(=O)[C@@]3(O)CC[C@H]4[C@@H]5CCC6=CC(=O)C=C[C@]6(C)[C@H]5C(=O)C[C@@]43C)c3ccc(N(C)C)cc3nc2c1	–	> 100	–	> 20.5	–	> 100	–	47.5	–	64.9	–	> 100	–	> 100	–	> 56.3	–	> 76.1	–	> 77.5
COc1ccc2c3c([nH]c2c1[N+](=O)[O-])C(C)N(C(=O)/C=C/c1ccccc1)CC3 (stereo not given)	–	> 100	–	7.01	–	42.6	–	41.3	–	> 100	–	> 100	–	4.75	–	23.2	–	> 100	–	> 100
COc1ccc(-c2ccc(=O)oc2-c2cc(OC)c(OC)c(OC)c2)cc1O	0.0379	0.426	0.0208	0.0705	0.051	> 100	0.199	> 100	0.0689	> 100	0.0124	0.0944	0.0606	> 34.8	< 0.0149	0.104	1.64	> 100	0.099	> 100
Cc1cc2cc(Oc3ccnc(Nc4cccc(CS(=O)(=O)NCCN(C)C)c4)n3)ccc2[nH]1	11.6	25.2	2.24	6.17	3.51	15	7.25	22.1	8.8	23.6	3.69	14.7	3.93	17.3	3.05	13.3	12.1	25.1	2.33	4.79
